From US20220008376A1, “INHIBITORS OF TYPE 3 SECRETION SYSTEM AND ANTIBIOTIC THERAPY” (priority 2018, published 2022) come the findings set out here.

Read-outs that look alike come from different tables or passages of the source.

As a reminder, the EC50 is the concentration giving half of the maximal effect.

Assay [1] relates to secretion of ExoS by PAO1. As to the kind of experiment: Inhibition of T3SS-mediated effector secretion (ExoS Western blot). Type of assay: cell-based, Pseudomonas aeruginosa. Particulars: PAO1 under low-calcium conditions; for inhibition of ExoS secretion: 100 μM. As for the experimental part: Inhibition of T3SS-mediated effector secretion. For T3SS induction, PAO1 overnight cultures were diluted to an OD at 600 nm of 0.3 in LB containing 5 mM EGTA and 20 mM MgCl2, in the presence of tanshinone inhibitors ([…]), followed by an incubation with mild agitation of additional 3-4 hours until the cultures reached an OD value of 1.5. NC group were cultured in LB and 2% DMSO, PC group were cultured in LB containing 5 mM EGTA, 20 mM MgCl2 and 2% DMSO. Culture supernatant was collected by centrifugation at 4000 g for 15 min at 4° C. and secreted proteins were concentrated by adding ice-cold trichloroacetic acid to a final concentration of 10% (V/V). Following a 2 hours' incubation on ice, the pellets were washed twice with cold acetone and suspended in an SDS-PAGE sample buffer (with 2-mercaptoethanol) according to the BCA protein assay protocol. Secreted and total proteins (supernatant and pelleted bacteria) were analyzed by immunoblotting with an anti-ExoS antibody (Agrisera, AS05056, at 1:4000 dilution) and corresponding HRP-conjugated secondary antibody. The blots were semi-quantified using ImageJ 1.51 k (from http://imagej.nih.gov/ij). The results were expressed as the mean±SD percentage of secreted ExoS out of total ExoS of three independent experiments.
In general terms: Immunoblotting shows a protein as a band on a membrane.

Assay [2] has as its system cytotoxicity of PAO1 to murine macrophages (J774A.1). As to the kind of experiment: Cytoplasmic lactate dehydrogenase (LDH) release assay, PAO1-infected macrophages. Type of assay: cell-based, mouse. Particulars: for inhibition of Pseudomonas aeruginosa-induced cell lysis (LDH release), words: different concentrations, MOI 8, 5 hours; for EC50: Mus musculus. An excerpt: Cytoplasmic lactate dehydrogenase (LDH) release assay. […] LDH released into supernatant was detected by LDH detection kit (Beyotime, C0017) as instructed by the manufacturer.
(LDH in the medium is a marker of cell lysis.)

Assay [3] addresses T1, PscE-PscG heterodimer (Pseudomonas aeruginosa, UniProt P95435). Type of assay: binding. Set-up: made in house; host or cells: total chemical synthesis (solid phase peptide synthesis and native chemical ligation), no expression host. Particulars: FP competition with FAM-PscF69-85 for PscE-PscG. As for the experimental part:
Fluorescence polarization (FP) and FP-based competitive binding assays. All fluorescence polarization assays were done using black, low protein binding 96-well plates (Thermo Fisher Scientific) in a total volume of 100 μl per well of 10 mM Tris buffer containing 150 mM NaCl and 1 mM EDTA, pH 7.0, unless indicated otherwise. After a gentle mixing and incubation for 3 h, FP readings were taken at 470 nm (excitation) and 530 nm (emission) wavelengths on a Tecan Infinite M2000 fluorescence plate reader. Nonlinear regression analyses were performed to give rise to Kd and IC50 values as previously described.
For direct binding of PscF to PscG or PscE-PscG, equal volumes of FAM-PscF^69-85 (400 nM) and serially diluted PscG or PscE-PscG (0-64 μM) were mixed. For initial screening, 95 μl of FAM-PscF^69-85-PscE-PscG (100 nM) in the assay buffer was mixed with 5 μl of small molecule inhibitor in DMSO to a final molar concentration of 1, 10, 100, or 1000 μM. 5% DMSO and 6 M GuHCl in the final assay buffer were used as negative and positive controls, respectively. For secondary screening or competitive binding assays, 95 μl of FAM-PscF^69-85-PscE-PscG (100 nM) in the assay buffer was mixed with 5 μl of serially diluted PscF^69-85 or various tanshinone analogs (0-200 μM).
Target sequence in this assay (P95435 1-114): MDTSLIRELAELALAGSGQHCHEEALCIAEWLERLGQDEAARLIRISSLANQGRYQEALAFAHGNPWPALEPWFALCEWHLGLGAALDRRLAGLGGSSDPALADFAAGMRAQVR
Target sequence in this assay (Q9I317 whole entry, further chain): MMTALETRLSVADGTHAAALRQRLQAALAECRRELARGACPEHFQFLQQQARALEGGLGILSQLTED

In assay [4] the test system is PAO1. As to the kind of experiment: Bacterial burden in bronchoalveolar lavage and lung histopathology, PAO1-infected mice. Type of assay: in vivo, C57BL/6J mice. From the text: (§1) Animal studies. 6-week-old female C57BL/6J mice used in this study were acquired from the Experimental Animal Center of Xian Jiaotong University. All the animals were maintained in animal care facilities in the School of Life Science and Technology, and provided with food and water ad libitum. The animal studies were approved by the Committee on Animal Research and Ethics, Xi'an Jiaotong University.
C57BL/6J mice were lightly anesthetized with inhaled sevoflurane and infected by intranasal instillation of PAO1 (1×10^7 CFU in 20 μL PBS) after lightly anesthetized with inhaled sevoflurane. Tanshinone inhibitors were administrated to the animals along with bacterial inoculation (100 μM, 1% DMSO). PBS containing 1% DMSO was used as mock treatment. 18 hours after infection, animals were sacrificed and bronchoalveolar lavages were collected and plated to obtain the bacterial counts in the lavages. The lungs of sacrificed mice were then isolated and fixed in 10% buffered formalin, paraffin embedded and hematoxylin-eosin-stained for histopathological examination. Pathological scores of the tissues were assigned according to the degree of inflammation.

Assay [5] has as its system intracellular PAO1 in J774A.1 cells. Particulars: different concentrations, gentamicin at 2 h post infection.
Protocol: Quantification of bacterial internalization. 5×10^4 J774a cells were seeded into each well of a 24-well plate and grown for 24 h before infection. One hour before the infection, cell culture medium was changed into serum-free medium and PAO-1 from mid-exponential phase was added to the cells at a multiplicity of infection (MOI) of 8. In the presence of different concentration of tanshinone inhibitors (0-100 μM compound, 2% DMSO), bacteria/cells mixtures were incubated for 2 hours and washed, then treated with gentamicin-containing (50 μg/ml) medium for another 2 hours before being lysed for plating. Internalized bacteria were defined as the total number of intracellular bacteria in cells (extracellular bacteria were killed by gentamicin, a cell-impermeable antibiotic). Results were normalized against the intracellular bacteria number by PAO-1-infected cells with mock treatment (2% DMSO). Average results of three independent experiments are shown as mean±SD.
Assay [6] relates to PAO1. As to the kind of experiment: Survival study, murine model of acute pneumonia. The class given is in vivo, C57BL/6J mice. Particulars: for mice died of infection within 48 h, first treatment 8 h after challenge: mock-treated 85%. The procedure:
as §1
For survival study, tanshinone inhibitors (100 μM, 1% DMSO, in 10 μL PBS) were administrated to the infected animals intranasally at the time of infection, or 8 h after infection, and every 12 hours till the death of the animal or the end of the experiment. PBS containing 1% DMSO was used as mock treatment.

The target of assay [7] is T1, PscE-PscG heterodimer. As to the kind of experiment: 15N-1H HSQC NMR of 15N-PscG-PscE with dHTSN1. The arrangement: inferred from the Ni-NTA purification; made in house; host or cells: PscG: E. coli (15N MOPS medium); PscE: chemical synthesis. Particulars: molar ratio 1:1:1. Type of assay: binding. The procedure: PscG was uniformly labeled with ^15N MOPS medium containing 1 g/L ^15NH4Cl as the sole source and BME vitamins (Sigma, USA). Cells were harvested by centrifugation at 6000 g for 30 min, resuspended in a lysis buffer containing 6 M urea, and subjected to a 1-min sonication, followed by two-cycle homogenization at 4° C. The lysates were centrifuged at 20,000 rpm for 30 min, and the supernatant was loaded onto a 10 ml Ni-NTA agarose column (Qiagen, USA). The elute was concentrated to 10-12 ml under denaturation conditions, followed by purification on a Sep-Pak C18 column. Peak fractions containing ^15N-PscG were lyophilized. […] The mixtures were dialyzed against the same buffer overnight and then concentrated to ˜300 μl.
All NMR samples were prepared in an NMR buffer containing 20 mM sodium phosphate (pH 7.4), 100 mM NaCl, 0.1% NaN3, 10% D2O and 2 mM DTT. The final protein concentrations were approximately 26 μM and 47.8 μM for ^15N-PscG-PscE and ^15N-PscG-PscE-dHTSN1 complexes, respectively. All NMR spectra were collected at 25° C. on a Bruker Avance 700 MHz spectrometer equipped with a triple-resonance pulse-field gradient probe. ^15N-^1H HSQC NMR spectra were recorded in the echo-antiecho mode for quadrature detection. All datasets were acquired with 2048 complex points in t2 and 256 complex points in t1.
Target sequence in this assay (Q9I317 whole entry): as the sequence (Q9I317 whole entry, further chain) above
Target sequence in this assay (P95435 whole entry): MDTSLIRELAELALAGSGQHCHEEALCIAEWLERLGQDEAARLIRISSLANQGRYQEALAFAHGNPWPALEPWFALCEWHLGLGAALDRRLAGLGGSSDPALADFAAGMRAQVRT

Assay [8] addresses T2, PscF^69-85-PscE-PscG complex (Pseudomonas aeruginosa, UniProt P95435).
T2 construct: made in house; host or cells: total chemical synthesis (solid phase peptide synthesis and native chemical ligation), no expression host
As to the kind of experiment: CD spectroscopy and thermal denaturation of the heterotrimer. Particulars: for effect on helicity of the heterotrimeric complex: CD, 20 μM heterotrimer, 25° C., 10 mM phosphate buffer, pH 7.4. As for the experimental part:
Circular dichroism (CD) spectroscopy and thermal denaturation. […] Protein thermal denaturation was carried out in PBS using a JASCO circular dichroism spectrometer equipped with temperature controller. […] Under constant stirring, measurement was taken at one-degree interval between 25° C. and 90° C., at a heating rate of 1° C. per minute. After each 1-minute heating, the solution in the cuvette was waited for 20 s before signals were detected over a 16 s period. Heating and data acquisition were fully automated with the control software provided by JASCO. Data processing was performed as previously described.

Setting [9] is: J774.A1, read-out: EC50, LDH release normalized against PAO1 ΔpscC.
Where [10] appears, read: J774.A1, normalized against mock-treated PAO1-infected cells, read-out: EC50, inhibition of PAO1 cytotoxicity to macrophages (LDH release).
The mark [11] stands for this setting: first intranasal dose 8 h after PAO1.

T2 sequence (Q9I317 whole entry): as the sequence (Q9I317 whole entry, further chain) above
T2 sequence (P95435 2-115): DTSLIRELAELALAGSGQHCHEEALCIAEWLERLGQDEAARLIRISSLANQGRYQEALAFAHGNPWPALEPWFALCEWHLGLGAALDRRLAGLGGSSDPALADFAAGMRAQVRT

With `C[C@H]1COC2=C1C(=O)C(=O)c1c2ccc2c1CCCC2(C)C` [crpTSN, cryptotanshinone, reference compound], the “inhibition of ExoS secretion” value in assay [1] is listed as “no inhibitory activity”. Further, the “inhibition of Pseudomonas aeruginosa-induced cell lysis (LDH release), words” value (“inhibition … words” below) in assay [2] was “inactive”. The “activity in FP competition assay” value on PscE-PscG heterodimer [3] is “inactive”.
Turning to `CC(Oc1ccc(Cl)cc1Cl)C(=O)NCc1ccc2c(c1)OCO2` (stereo not shown) [MBX-1641, reference compound], in assay [1] (6.25 μM), the “inhibition of ExoS secretion (MBX-1641)” value was “inhibited”. Besides, the “bacterial burden in bronchoalveolar lavage” value in the assay with PAO1 [4] (single dose 100 μM at time of infection, sampled 18 h post infection) is recorded as “reduced bacterial burden”. Further, the “inhibition of intracellular bacterial survival / proliferation of PAO1 in macrophages” value in assay [5] is “inhibited”. The “activity in FP competition assay” value at PscE-PscG heterodimer [3] is listed as “no effect”.
In the case of `Cc1coc2c1C(=O)C(=O)c1c-2ccc2c1CCCC2(C)C` [tanshinone 2A], the “activity in FP competition assay” value on PscE-PscG heterodimer [3] is “inactive”.
As to `Cc1cccc2c3c(ccc12)C(=O)C1=C(OC[C@H]1C)C3=O` [dHTSN], the “inhibition of ExoS secretion” value in assay [1] was “more active than TSN1”. The concentration giving a half-maximal response (EC50) in assay [2] (setting [9]) was roughly 3 µM; in assay [2] (setting [10]), 12.5 µM. Moreover, the “inhibition … words” value in assay [2] is reported as “inhibited Pseudomonas aeruginosa-induced cell lysis in a dose dependent manner”. Moreover, the “mice died of infection within 48 h, first treatment 8 h after challenge” value (shortened to “mice died of infection within 48 h”) with PAO1 [6] (setting [11]) is on record as 20%.
As to `Cc1cccc2c3c(ccc12)C1=C(C(=O)C3=O)[C@@H](C)CO1` [dHTSN1, dihydrotanshinone 1], the “inhibition of ExoS secretion” value in assay [1] is listed as “more active than TSN1”. Also, the EC50 in assay [2] (setting [9]) was roughly 3 µM. Moreover, in assay [2] (setting [10]), the EC50 came to 25 µM. The “inhibition … words” value in assay [2] is recorded as “inhibited Pseudomonas aeruginosa-induced cell lysis in a dose dependent manner”. In the assay on PAO1 [6] (setting [11]), the “infected mice survived beyond 96 h, first treatment 8 h after challenge” value is given as 80% and the “mice died of infection within 48 h” value is on record as 5%. In addition, the “lung inflammation, H&E staining” value in the assay on PAO1 [4] (18 h post infection) is on record as “significantly reduced inflammation”. Also, on PscE-PscG heterodimer [7], the “interaction with 15N-PscG-PscE complex by NMR” value was “relatively strong interactions”.
`Cc1coc2c1C(=O)C(=O)c1c-2ccc2c(C)cccc12` [TSN1, tanshinone 1]: the “effect on helicity of the heterotrimeric complex” value in assay [8] is “reduced”; in assay [8] (listed as tanshinone 1) it was “progressively decreases”. In addition, in assay [8] (added to preformed heterotrimer PscE-PscG-PscF^69-85), the “effect on thermal stability of the heterotrimeric complex” value is “reduced”. Moreover, the Tm of PscF^69-85-PscE-PscG complex in presence of compound in assay [8] (complex 20 μM in PBS, 300 μM tanshinone 1, CD at 222 nm, 54.8 in absence) was 52.3 °C. For the same compound, the “inhibition … words” value in assay [2] is given as “inhibited Pseudomonas aeruginosa-induced cell lysis in a dose dependent manner”. In the assay on PAO1 [6] (100 μM intranasal at time of infection and every 12 h), the “protection of infected mice, treatment from time of infection” value is “significantly protective”. Also, in the assay with PAO1 [6] (setting [11]), the “mice died of infection within 48 h” value worked out at 40%.
